Measured values from ChEMBL document CHEMBL1142620, “Anthraquinones and betaenone derivatives from the sponge-associated fungus Microsphaeropsis species: novel inhibitors of protein kinases” (J Nat Prod, 2000).

Key:
[1] = molecular target: Cyclin-dependent kinase 4/cyclin D1 (Homo sapiens, UniProt P11802); assay: Inhibition of human recombinant CDK4/cyclin D1 kinase expressed in Sf9 insect cells
[2] = molecular target: Epidermal growth factor receptor (Homo sapiens, UniProt P00533); assay: Inhibition of human recombinant EGFR kinase expressed in Sf9 insect cells
[3] = molecular target: T1, Protein kinase C epsilon type (Mus musculus, UniProt P16054); assay: Inhibition of mouse recombinant PKCepsilon expressed in Sf9 insect cells
T1 sequence (P16054 whole entry): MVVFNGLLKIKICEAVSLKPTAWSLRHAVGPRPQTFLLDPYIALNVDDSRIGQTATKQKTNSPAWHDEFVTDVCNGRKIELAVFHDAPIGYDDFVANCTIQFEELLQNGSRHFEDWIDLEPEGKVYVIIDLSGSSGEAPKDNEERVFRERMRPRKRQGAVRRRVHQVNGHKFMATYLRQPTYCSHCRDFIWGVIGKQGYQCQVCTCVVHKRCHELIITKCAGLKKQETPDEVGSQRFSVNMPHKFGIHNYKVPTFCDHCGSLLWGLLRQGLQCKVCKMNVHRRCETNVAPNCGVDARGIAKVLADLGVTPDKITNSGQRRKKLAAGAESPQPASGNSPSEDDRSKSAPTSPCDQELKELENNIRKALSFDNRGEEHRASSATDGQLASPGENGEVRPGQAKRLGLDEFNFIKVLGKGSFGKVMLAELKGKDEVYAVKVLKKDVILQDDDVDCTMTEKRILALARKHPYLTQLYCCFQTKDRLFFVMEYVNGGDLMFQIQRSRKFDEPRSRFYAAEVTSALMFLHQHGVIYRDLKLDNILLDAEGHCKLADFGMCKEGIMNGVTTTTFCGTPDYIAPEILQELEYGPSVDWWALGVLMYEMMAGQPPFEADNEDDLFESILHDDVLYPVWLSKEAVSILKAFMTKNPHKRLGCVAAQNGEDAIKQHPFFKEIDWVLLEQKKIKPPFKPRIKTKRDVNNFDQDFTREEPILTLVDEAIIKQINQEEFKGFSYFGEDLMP

Epidermal growth factor receptor, sequence (P00533 whole entry): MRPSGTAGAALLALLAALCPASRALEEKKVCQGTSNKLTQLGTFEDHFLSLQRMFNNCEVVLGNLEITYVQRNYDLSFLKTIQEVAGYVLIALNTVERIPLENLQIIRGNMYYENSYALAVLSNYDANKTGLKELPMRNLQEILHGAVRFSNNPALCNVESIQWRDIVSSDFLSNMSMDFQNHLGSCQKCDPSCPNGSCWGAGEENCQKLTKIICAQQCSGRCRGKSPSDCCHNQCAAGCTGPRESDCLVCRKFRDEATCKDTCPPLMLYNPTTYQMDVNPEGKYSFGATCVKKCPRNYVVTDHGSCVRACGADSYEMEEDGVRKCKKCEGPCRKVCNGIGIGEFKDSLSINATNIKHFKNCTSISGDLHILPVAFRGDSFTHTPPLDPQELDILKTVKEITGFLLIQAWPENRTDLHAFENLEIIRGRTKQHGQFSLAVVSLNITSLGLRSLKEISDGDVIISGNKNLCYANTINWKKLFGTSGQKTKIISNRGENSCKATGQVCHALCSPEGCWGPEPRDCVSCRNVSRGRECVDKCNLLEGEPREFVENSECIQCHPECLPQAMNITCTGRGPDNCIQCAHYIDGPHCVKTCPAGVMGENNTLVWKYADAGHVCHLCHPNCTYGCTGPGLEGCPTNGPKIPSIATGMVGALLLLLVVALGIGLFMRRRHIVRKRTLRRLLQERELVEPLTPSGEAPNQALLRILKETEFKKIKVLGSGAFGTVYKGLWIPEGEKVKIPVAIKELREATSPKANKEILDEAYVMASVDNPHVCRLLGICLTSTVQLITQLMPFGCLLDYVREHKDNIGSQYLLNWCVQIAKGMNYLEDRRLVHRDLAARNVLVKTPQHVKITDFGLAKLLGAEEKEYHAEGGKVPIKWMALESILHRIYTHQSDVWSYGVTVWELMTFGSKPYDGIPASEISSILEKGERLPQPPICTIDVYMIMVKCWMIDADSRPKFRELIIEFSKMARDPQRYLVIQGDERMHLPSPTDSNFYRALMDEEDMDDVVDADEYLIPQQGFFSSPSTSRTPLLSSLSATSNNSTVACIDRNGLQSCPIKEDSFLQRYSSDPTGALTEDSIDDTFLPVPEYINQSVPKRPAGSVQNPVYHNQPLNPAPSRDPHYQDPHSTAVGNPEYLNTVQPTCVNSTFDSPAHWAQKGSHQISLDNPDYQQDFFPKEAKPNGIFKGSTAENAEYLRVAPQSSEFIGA
Cyclin-dependent kinase 4/cyclin D1, sequence (P11802 whole entry): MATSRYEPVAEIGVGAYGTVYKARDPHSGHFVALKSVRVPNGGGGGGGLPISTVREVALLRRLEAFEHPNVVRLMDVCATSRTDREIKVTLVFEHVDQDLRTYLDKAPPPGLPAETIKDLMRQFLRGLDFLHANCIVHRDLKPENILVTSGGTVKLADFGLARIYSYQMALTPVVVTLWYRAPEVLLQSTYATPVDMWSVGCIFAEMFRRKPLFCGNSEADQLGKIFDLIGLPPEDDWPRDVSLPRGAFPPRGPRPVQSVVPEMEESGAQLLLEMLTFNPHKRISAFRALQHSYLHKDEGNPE
Cyclin-dependent kinase 4/cyclin D1, sequence (P24385 whole entry, further chain): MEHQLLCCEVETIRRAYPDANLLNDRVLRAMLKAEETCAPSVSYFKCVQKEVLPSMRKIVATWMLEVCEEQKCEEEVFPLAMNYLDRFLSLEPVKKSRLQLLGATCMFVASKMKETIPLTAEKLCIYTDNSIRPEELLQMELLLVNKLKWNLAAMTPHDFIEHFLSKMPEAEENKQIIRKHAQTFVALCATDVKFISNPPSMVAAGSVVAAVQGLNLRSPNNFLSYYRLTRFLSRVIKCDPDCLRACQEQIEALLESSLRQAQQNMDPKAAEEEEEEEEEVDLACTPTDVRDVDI

Compound	IC50 [1] [µM]	IC50 [2] [µM]	IC50 [3] [µM]
CO[C@H](C)c1c(O)cc2c(c1O)C(=O)c1c(cc(O)c(O)c1O)C2=O	37.5	41	54
CCC(C)[C@@H]1[C@@](C)(C(=O)/C=C/N(c2ccccc2)c2ccc3ccccc3c2)[C@H]2[C@H](C)C[C@@](C)(O)C[C@]2(O)C(=O)[C@@]1(C)O (stereo not given in full)	> 100	> 100	> 100
CO[C@H](C)c1c(O)cc2c(c1O)C(=O)c1c(O)cc(O)cc1C2=O	22.5	27.5	27
CCC(C)[C@@H]1[C@@](C)(C(=O)/C=C/OC)[C@H]2[C@H](C)C[C@@](C)(O)C[C@]2(O)C(=O)[C@@]1(C)O (stereo not given in full)	11.5	10.5	36
C[C@@H](O)c1c(O)cc2c(c1O)C(=O)c1c(O)cc(O)cc1C2=O	43.5	37.5	18.5
